Test results as given in US7101967B2, “Transport vectors” (priority 1998, dated 2006).
Square brackets hold non-standard residues; d marks the D form. Peptide text beside a SMILES is read from it. * marks the point of attachment. X3 = COc1cc([C@@H]2c3cc4c(cc3[C@@H](Nc3ccc(NC(=O)CCN5C(=O)CC(*)C5=O)cc3)[C@H]3COC(=O)[C@H]23)OCO4)cc(O)c1O; Biotin = O=C1N[C@H]2[C@H](CS[C@H]2CCCCC(=O)*)N1; βAla = NCCC(=O)O

Assays:
[1] = test system: purified recombinant human topoisomerase II; assay: Topoisomerase II inhibition assay (cleavage and relaxation of plasmid DNA); assay type: biochemical; set-up: key: I denotes inhibition of relaxation of supercoiled plasmid by topoisomerase II; C denotes accumulation of topoisomerase II reaction intermediate; settings: test compound at 1 mM, 100 μM, or 10 μM final concentration; cleavage and relaxation assays
Description: Topoisomerase II assay—Plasmid DNA (0.3 μg) was incubated at 37° C. with 4 units of purified recombinant human topoisomerase II in cleavage buffer (30 mM Tris.HCl, pH 7.6, 60 mM NaCl, 3 mM ATP, 15 mM mercaptoethanol, 8 mM MgCl2) with or without the addition of test compound (at 1 mM, 100 μM, or 10 μM final concentration). Reactions were stopped by the immediate addition of SDS (1% w/v final). Samples were treated with proteinase K (30 min at 37° C.) and extracted twice with an equal volume of 42:1 CHCl3/i-amyl alcohol. After adding loading dye samples were loaded to a 4×TAE, 1% agarose gel containing […] ethidium bromide and electrophoresed for 16-24 h. Topoisomerase II inhibition was judged by the production of linear plasmid DNA, representing trapped cleavage intermediate, and by the ratio of substrate (spercoiled DNA) to product (relaxed DNA). A relaxation assay was performed identically, except that the reaction buffer was optimised for the detection of catalysis rather than cleavage i.e. only 2 units of enzyme were used per sample. The reaction buffer was 50 mM Tris.HCl, pH 8, 120 mM KCl, 0.5 mM ATP, 0.5 mM dithiothreitol, 10 mM MgCl2. Topoisomerase II inhibition was judged by the ratio of substrate (supercoiled DNA) to product (relaxed DNA).

[2] = Maximum tolerated dose by iv administration in mice; settings: mouse, in vivo
live cells = assay: Visualisation of cell internalisation (biotin-avidin and direct fluorescein probe); assay type: cell-based; settings: FIG. 4, visualisation in cells
Description: This assay permitted the study and measurement of cell internalisation without the possibility of observing artefacts emanating from the cell manipulations necessary with the biotinylated peptides. […] (squares when t=10 mins, diamonds when t=60 mins). […] Nuceolar accumulation may be due to non-specific binding of the positively charged peptide to DNA.

HaCaT cells = assay: Peptide internalisation assay (biotinylated peptides, alkaline phosphatase-streptavidin detection); assay type: cell-based, human; settings: for degree of internalisation / membrane translocation relative to control peptide 1: FIG. 2, one peptide concentration, same pattern regardless of concentration; for internalised into cells / active in the cell internalisation assay (qualitative): assay of section 1.3
Description: HaCaT cells (immortalised ‘normal’ human […] cell line) were seeded into 96-well plates at 50,000 cells per well in medium (DMEM) with 10% foetal calf serum and antibiotics. After an overnight incubation, peptides were prepared as dilution series in cell medium and were added to the cells. At the end of the incubation period (usually 10 and 60 min), the cells were rinsed three times with PBS and fixed for 20 min at −20° C. in EtOH/AcOH (95:5). After the fixation, the cells were made permeable by treatment for 10 min with PBS containing 3% Tween-20. Endogenous alkaline phosphatase activity was neutralised by incubation at 65° C. for 60 min. Cells were incubated for 30 min at room temperature with alkaline phosphatase-streptavidin (Pierce Chemical Co., Rockford, Ill., USA) in 0.1% BSA in PBS and washed extensively with PBS. Freshly prepared substrate solution (1 mg/mL p-nitrophenyl phosphate disodium (Pierce Chemical Co.) in 10 mM diethanolamine (pH 9.5) containing 0.5 mM MgCl, was added to each well and incubated until sufficient colour had developed (approximately 30 min.). The enzymatic reaction was stopped by adding 50 μL 2 M aq NaOH to each well. Alkaline phosphatase activity was measured spectrophotometrically at 405 nm.

Compound	internalised into cells / active in the cell internalisation assay (qualitative) (HaCaT cells)	other results
COc1cc(C2c3cc4c(cc3C(Nc3ccc(N)cc3)C3COC(=O)C23)OCO4)cc(OC)c1O (centres unmarked) [4′-Demethyl-4-(4″-aminoanilino)epipodophyllotoxin, reference compound]		Activity observed (topoisomerase II) [1]: I
COc1cc([C@@H]2c3cc4c(cc3[C@@H](Nc3ccc(NC(=O)CCN5C(=O)CC(SC[C@H](N)C(=O)NCCC(=O)N[C@@H](CCCNC(=N)N)C(=O)N[C@@H](CCCNC(=N)N)C(=O)N[C@@H](CCSC)C(=O)N[C@@H](CCCCN)C(=O)N[C@@H](Cc6c[nH]c7ccccc67)C(=O)N[C@@H](CCCCN)C(=O)N[C@@H](CCCCN)C(N)=O)C5=O)cc3)[C@H]3COC(=O)[C@H]23)OCO4)cc(O)c1O (stereo partly drawn) [4′-Demethyl-4-[4″-aminoanilino-(succinimidopropionoyl)-(H-Cys-βAla-Arg-Arg-Met-Lys-Trp-Lys-Lys-NH2)]epipodophyllotoxin] (H-C(X3)[βAla]RRMKWKK-NH2)		Activity observed (topoisomerase II) [1]: I
CC[C@H](C)[C@H](NC(=O)[C@H](CCCCN)NC(=O)[C@@H](NC(=O)[C@H](CCC(N)=O)NC(=O)[C@H](CCCNC(=N)N)NC(=O)[C@@H](N)CSC1CC(=O)N(CCC(=O)O[C@H]2c3cc4c(cc3[C@@H](c3cc(OC)c(OC)c(OC)c3)[C@H]3C(=O)OC[C@@H]32)OCO4)C1=O)[C@@H](C)CC)C(=O)N[C@@H](Cc1c[nH]c2ccccc12)C(=O)N[C@@H](Cc1ccccc1)C(=O)N[C@@H](CCC(N)=O)C(=O)N[C@@H](CC(N)=O)C(=O)N[C@@H](CCCNC(=N)N)C(=O)N[C@@H](CCCNC(=N)N)C(=O)N[C@@H](CCSC)C(=O)N[C@@H](CCCCN)C(=O)N[C@@H](Cc1c[nH]c2ccccc12)C(=O)N[C@@H](CCCCN)C(=O)N[C@@H](CCCCN)C(=O)NCC(=O)N[C@@H](CS)C(=O)NCC(N)=O (some centres unmarked) [podophyllotoxin, 16-mer]		MTD [2]: ~40 mg/kg
Biotinyl-βAla-Arg-Gln-Ile-Lys-Ile-Trp-Phe-Gln-Asn-Arg-Arg-Met-Lys-Trp-Lys-Lys-NH2 (ARQIKIWFQNRRMKWKK; N-terminal biotin, beta-residue; C-terminal amide; MOD_RES (1) bAla) [Peptide 1]		subcellular localisation after internalisation (live cells): localises predominantly to the cell nucleus and accumulates in the nucleoli, with lesser concentration in the cytosol
Biotinyl-βAla-Arg-Met-Lys-Trp-Lys-Lys-NH2 (Biotin-[βAla]RMKWKK-NH2; SMILES CSCC[C@H](NC(=O)[C@H](CCCNC(=N)N)NC(=O)CCNC(=O)CCCC[C@@H]1SC[C@@H]2NC(=O)N[C@@H]21)C(=O)N[C@@H](CCCCN)C(=O)N[C@@H](Cc1c[nH]c2ccccc12)C(=O)N[C@@H](CCCCN)C(=O)N[C@@H](CCCCN)C(N)=O) [Peptide 20]		degree of internalisation / membrane translocation relative to control peptide 1 (HaCaT cells): severe drop
Biotinyl-βAla-Ile-Trp-Phe-Gln-Asn-Arg-Arg-Met-Lys-Trp-Lys-Lys-NH2 (Biotin-[βAla]IWFQNRRMKWKK-NH2; SMILES CC[C@H](C)[C@H](NC(=O)CCNC(=O)CCCC[C@@H]1SC[C@@H]2NC(=O)N[C@@H]21)C(=O)N[C@@H](Cc1c[nH]c2ccccc12)C(=O)N[C@@H](Cc1ccccc1)C(=O)N[C@@H](CCC(N)=O)C(=O)N[C@@H](CC(N)=O)C(=O)N[C@@H](CCCNC(=N)N)C(=O)N[C@@H](CCCNC(=N)N)C(=O)N[C@@H](CCSC)C(=O)N[C@@H](CCCCN)C(=O)N[C@@H](Cc1c[nH]c2ccccc12)C(=O)N[C@@H](CCCCN)C(=O)N[C@@H](CCCCN)C(N)=O) [Peptide 14]		degree of internalisation / membrane translocation relative to control peptide 1 (HaCaT cells): only about half of the original signal was left
Biotinyl-βAla-Trp-Phe-Gln-Asn-Arg-Arg-Met-Lys-Trp-Lys-Lys-NH2 (Biotin-[βAla]WFQNRRMKWKK-NH2; SMILES CSCC[C@H](NC(=O)[C@H](CCCNC(=N)N)NC(=O)[C@H](CCCNC(=N)N)NC(=O)[C@H](CC(N)=O)NC(=O)[C@H](CCC(N)=O)NC(=O)[C@H](Cc1ccccc1)NC(=O)[C@H](Cc1c[nH]c2ccccc12)NC(=O)CCNC(=O)CCCC[C@@H]1SC[C@@H]2NC(=O)N[C@@H]21)C(=O)N[C@@H](CCCCN)C(=O)N[C@@H](Cc1c[nH]c2ccccc12)C(=O)N[C@@H](CCCCN)C(=O)N[C@@H](CCCCN)C(N)=O) [Peptide 15]		degree of internalisation / membrane translocation relative to control peptide 1 (HaCaT cells): only about half of the original signal was left
KKWKORR	internalised into cells	
KRMKWKK	internalised into cells	
NRRMKWKK	internalised into cells	
QNRRMKWKK	internalised into cells	
RKMKWKK	internalised into cells	
RORKWKK	internalised into cells	
RREKWKK	internalised into cells	
RRMKKWK	internalised into cells	
RRMKQKK	internalised into cells	
RRMKWFK	internalised into cells	
RRMKWKK	internalised into cells	
RRMWKKK	internalised into cells	
RROKKWK	internalised into cells	
RROKWKK [O = norleucine]	internalised into cells	
RROWKKK	internalised into cells	
RRQKWKK	internalised into cells	
